Measurements: PubChem BioAssay AID2060502 (Molecular Pharmacology Branch, DTP, NCI, 2025)

Tested on: 885724-159-R-J1-PDC complex spheroid viability
Test: Anticancer human tumor 885724-159-R-J1-PDC patient-derived pancreatic adenocarcinoma cell line growth inhibition [GQUAD]
Settings: for IC50: curve of first compound; for viability, T/C: stronger effect = lower value; active means viability on the fitted dose curve at most 10% of control; inactive means the rest
Method in brief: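 Viability of tumor cells grown as complex spheroids with endothelial and stromal cells, exposed to drug combinations. Top concentration at or near clinical Cmax (else 10 microM), diluted in half-log increments.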

[1] = second compound 0.0316 µM, first compound 0.0316 µM
[2] = second compound 0.0316 µM, first compound 0.1 µM
[3] = second compound 0.0316 µM, first compound 0.316 µM
[4] = second compound 0.0316 µM, first compound 1 µM
[5] = second compound 0.0316 µM, first compound 3.16 µM
[6] = second compound 0.0316 µM, first compound 10 µM
[7] = second compound 0.1 µM, first compound 0.0316 µM
[8] = second compound 0.1 µM, first compound 0.1 µM
[9] = second compound 0.1 µM, first compound 0.316 µM
[10] = second compound 0.1 µM, first compound 1 µM
[11] = second compound 0.1 µM, first compound 3.16 µM
[12] = second compound 0.1 µM, first compound 10 µM
[13] = second compound 0.316 µM, first compound 0.0316 µM
[14] = second compound 0.316 µM, first compound 0.1 µM
[15] = second compound 0.316 µM, first compound 0.316 µM
[16] = second compound 0.316 µM, first compound 1 µM
[17] = second compound 0.316 µM, first compound 3.16 µM
[18] = second compound 0.316 µM, first compound 10 µM
[19] = second compound 1 µM, first compound 0.0316 µM
[20] = second compound 1 µM, first compound 0.1 µM
[21] = second compound 1 µM, first compound 0.316 µM
[22] = second compound 1 µM, first compound 1 µM
[23] = second compound 1 µM, first compound 3.16 µM
[24] = second compound 1 µM, first compound 10 µM
[25] = second compound 3.16 µM, first compound 0.0316 µM
[26] = second compound 3.16 µM, first compound 0.1 µM
[27] = second compound 3.16 µM, first compound 0.316 µM
[28] = second compound 3.16 µM, first compound 1 µM
[29] = second compound 3.16 µM, first compound 3.16 µM
[30] = second compound 3.16 µM, first compound 10 µM
[31] = second compound 10 µM, first compound 0.0316 µM
[32] = second compound 10 µM, first compound 0.1 µM
[33] = second compound 10 µM, first compound 0.316 µM
[34] = second compound 10 µM, first compound 1 µM
[35] = second compound 10 µM, first compound 3.16 µM
[36] = second compound 10 µM, first compound 10 µM
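Further: spheroids exposed to agents for seven days before readout.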
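Wherever viability, T/C is given: percent of vehicle control viability where 100% = DMSO wells.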

CCCS(=O)(=O)Nc1ccc(F)c(C(=O)c2c[nH]c3ncc(-c4ccc(Cl)cc4)cc23)c1F + CN(C)c1ccc(Nc2c3ccc(NC(=O)CCN4CCCC4)cc3nc3cc(NC(=O)CCN4CCCC4)ccc23)cc1
inactive: viability, T/C [1] 112% | viability, T/C [2] 114% | viability, T/C [3] 116% | viability, T/C [4] 130% | viability, T/C [5] 139% | viability, T/C [6] 84.7% | viability, T/C [7] 99.8% | viability, T/C [8] 98.1% | viability, T/C [9] 121% | viability, T/C [10] 129% | viability, T/C [11] 133% | viability, T/C [12] 65.5% | viability, T/C [13] 97% | viability, T/C [14] 99.3% | viability, T/C [15] 108% | viability, T/C [16] 107% | viability, T/C [17] 146% | viability, T/C [18] 66% | viability, T/C [19] 80.4% | viability, T/C [20] 82% | viability, T/C [21] 109% | viability, T/C [22] 118% | viability, T/C [23] 134% | viability, T/C [24] 64.4% | viability, T/C [25] 81% | viability, T/C [26] 74.2% | viability, T/C [27] 101% | viability, T/C [28] 101% | viability, T/C [29] 114% | viability, T/C [30] 48.9% | viability, T/C [31] 80.2% | viability, T/C [32] 73.1% | viability, T/C [33] 82.1% | viability, T/C [34] 99.5% | viability, T/C [35] 93.9% | viability, T/C [36] 16.5%
> 10 µM: IC50 (second compound 0.0316 µM) | IC50 (second compound 0.1 µM) | IC50 (second compound 0.316 µM) | IC50 (second compound 1 µM)
5.73 µM: IC50 (second compound 10 µM)
9.74 µM: IC50 (second compound 3.16 µM)

COc1ccc([C@@H](O)c2cc(-c3ncnc4cc(N5CCOCC5)ccc34)c(F)cc2Cl)nn1 + CN(C)c1ccc(Nc2c3ccc(NC(=O)CCN4CCCC4)cc3nc3cc(NC(=O)CCN4CCCC4)ccc23)cc1
4.79 µM: IC50 (second compound 0.1 µM)
5.21 µM: IC50 (second compound 0.316 µM)
3.14 µM: IC50 (second compound 3.16 µM)
inactive: viability, T/C [1] 88.5% | viability, T/C [2] 89% | viability, T/C [3] 79.8% | viability, T/C [4] 85.3% | viability, T/C [5] 58.4% | viability, T/C [6] 44.6% | viability, T/C [7] 95.7% | viability, T/C [8] 90.5% | viability, T/C [9] 95.7% | viability, T/C [10] 73.5% | viability, T/C [11] 59% | viability, T/C [12] 36.9% | viability, T/C [13] 89.3% | viability, T/C [14] 82.3% | viability, T/C [15] 79.2% | viability, T/C [16] 70.7% | viability, T/C [17] 62.8% | viability, T/C [18] 36.3% | viability, T/C [19] 78.9% | viability, T/C [20] 84.1% | viability, T/C [21] 82.7% | viability, T/C [22] 70.2% | viability, T/C [23] 49.6% | viability, T/C [24] 30.2% | viability, T/C [25] 71.6% | viability, T/C [26] 70.9% | viability, T/C [27] 73.7% | viability, T/C [28] 60.4% | viability, T/C [29] 50.9% | viability, T/C [30] 29.6% | viability, T/C [31] 72.9% | viability, T/C [32] 81.5% | viability, T/C [33] 69.5% | viability, T/C [34] 62.2% | viability, T/C [35] 49% | viability, T/C [36] 25.2%
2.73 µM: IC50 (second compound 10 µM)
6.35 µM: IC50 (second compound 0.0316 µM)
3.02 µM: IC50 (second compound 1 µM)

CCc1c2c(nc3ccc(O)cc13)-c1cc3c(c(=O)n1C2)COC(=O)[C@]3(O)CC + Cc1[nH]c2ccc(F)cc2c1-c1nc2c3cccnc3c3ncccc3c2[nH]1
0.114 µM: IC50 (second compound 0.0316 µM)
inactive: viability, T/C (second compound 0.0316 µM, first compound 0.000999 µM) 96.4% | viability, T/C (second compound 0.0316 µM, first compound 0.00316 µM) 83.6% | viability, T/C (second compound 0.0316 µM, first compound 0.00999 µM) 83.2% | viability, T/C [1] 73.9% | viability, T/C (second compound 0.0316 µM, first compound 0.0999 µM) 55.5% | viability, T/C [3] 18.4% | viability, T/C (second compound 0.1 µM, first compound 0.000999 µM) 104% | viability, T/C (second compound 0.1 µM, first compound 0.00316 µM) 90.5% | viability, T/C (second compound 0.1 µM, first compound 0.00999 µM) 76.8% | viability, T/C [7] 70.4% | viability, T/C (second compound 0.1 µM, first compound 0.0999 µM) 60.9% | viability, T/C [9] 21.3% | viability, T/C (second compound 0.316 µM, first compound 0.000999 µM) 85.8% | viability, T/C (second compound 0.316 µM, first compound 0.00316 µM) 86% | viability, T/C (second compound 0.316 µM, first compound 0.00999 µM) 73.3% | viability, T/C [13] 69.5% | viability, T/C (second compound 0.316 µM, first compound 0.0999 µM) 59.8% | viability, T/C [15] 21.5% | viability, T/C (second compound 1 µM, first compound 0.000999 µM) 78% | viability, T/C (second compound 1 µM, first compound 0.00316 µM) 61.1% | viability, T/C (second compound 1 µM, first compound 0.00999 µM) 57.6% | viability, T/C [19] 60.6% | viability, T/C (second compound 1 µM, first compound 0.0999 µM) 58.7% | viability, T/C [21] 18.9% | viability, T/C (second compound 3.16 µM, first compound 0.000999 µM) 43% | viability, T/C (second compound 3.16 µM, first compound 0.00316 µM) 28.7% | viability, T/C (second compound 3.16 µM, first compound 0.00999 µM) 28.4% | viability, T/C [25] 21.3% | viability, T/C (second compound 3.16 µM, first compound 0.0999 µM) 14.1% | viability, T/C (second compound 10 µM, first compound 0.000999 µM) 63% | viability, T/C (second compound 10 µM, first compound 0.00316 µM) 58.8% | viability, T/C (second compound 10 µM, first compound 0.00999 µM) 46.8% | viability, T/C [31] 60.3% | viability, T/C (second compound 10 µM, first compound 0.0999 µM) 45.5% | viability, T/C [33] 21.4%
0.11 µM: IC50 (second compound 0.1 µM)
0.125 µM: IC50 (second compound 1 µM)
0.0624 µM: IC50 (second compound 10 µM)
0.121 µM: IC50 (second compound 0.316 µM)
< 0.000999 µM: IC50 (second compound 3.16 µM)
active: viability, T/C [27] 7.27%
